Laboratory results from BindingDB's records for doi:10.1016/s0960-894x(98)00213-3 (Centre De Recherche Pierre Fabre, 1999).

What was measured:
[1] = In vitro inhibition of dog liver squalene epoxidase in HepG2 cells
[2] = In vitro inhibition of pig liver squalene epoxidase in HepG2 cells

## CCN(C/C=C/C#CC(C)(C)C)Cc1cccc(OCCN(C)S(=O)(=O)c2cccs2)c1 [Thiophene-2-sulfonic acid [2-(3-{[((E)-6,6-dimethyl-hept-2-en-4-ynyl)-ethyl-amino]-methyl}-phenoxy)-ethyl]-methyl-amide]
[1]
  IC50: 80 nM
[2]
  IC50: 50 nM
